{"source": "patent US6737383B1", "about": "“Herbicidal oxadiazolidines” (priority 1999, dated 2004)", "key": {"surinam grass": {"tested_on": "surinam grass", "assay": "Test B pre/postemergence surinam grass", "format": "in vivo, Brachiaria decumbens", "procedure,_shortened": "(§1)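 Test chemicals in a non-phytotoxic solvent mixture with surfactant were sprayed preemergence onto planted seeds and postemergence onto plants 2 to 18 cm tall (1- to 4-leaf stage). After twelve to sixteen days in a greenhouse, injury was visually rated against untreated controls from 0 (no effect) to 10 (complete control).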"}, "soybean": {"tested_on": "soybean", "assay": "Test B pre/postemergence soybean", "format": "in vivo, Glycine max", "procedure,_shortened": "as §1"}, "bedstraw": {"tested_on": "bedstraw", "assay": "Test B pre/postemergence bedstraw", "format": "in vivo, Galium aparine", "procedure,_shortened": "as §1"}, "velvetleaf": {"tested_on": "velvetleaf", "assay": "Test B pre/postemergence velvetleaf", "format": "in vivo, Abutilon theophrasti", "procedure,_shortened": "as §1"}, "giant foxtail": {"tested_on": "giant foxtail", "assay": "Test B pre/postemergence giant foxtail", "format": "in vivo, Setaria faberii", "procedure,_shortened": "as §1"}, "purple nutsedge": {"tested_on": "purple nutsedge", "assay": "Test B pre/postemergence purple nutsedge", "format": "in vivo, Cyperus rotundus", "procedure,_shortened": "as §1"}, "morningglory": {"tested_on": "morningglory", "assay": "Test B pre/postemergence morningglory", "format": "in vivo, Ipomoea hederacea", "procedure,_shortened": "as §1"}, "wheat": {"tested_on": "wheat", "assay": "Test B pre/postemergence wheat", "format": "in vivo, Triticum aestivum", "procedure,_shortened": "as §1"}, "pigweed": {"tested_on": "pigweed", "assay": "Test B pre/postemergence pigweed", "format": "in vivo, Amaranthus retroflexus", "procedure,_shortened": "as §1"}, "wild oat": {"tested_on": "wild oat", "assay": "Test B pre/postemergence wild oat", "format": "in vivo, Avena fatua", "procedure,_shortened": "as §1"}, "blackgrass": {"tested_on": "blackgrass", "assay": "Test B pre/postemergence blackgrass", "format": "in vivo, Alopecurus myosuroides", "procedure,_shortened": "as §1"}, "cocklebur": {"tested_on": "cocklebur", "assay": "Test B pre/postemergence cocklebur", "format": "in vivo, Xanthium strumarium", "procedure,_shortened": "as §1"}, "crabgrass": {"tested_on": "crabgrass", "assay": "Test B pre/postemergence crabgrass", "format": "in vivo, Digitaria sanguinalis", "procedure,_shortened": "as §1"}, "[1]": {"settings": "Postemergence, Rate 125 g/ha, scale of 0 to 10 where 0 is no effect and 10 is complete control"}, "[2]": {"settings": "Preemergence, Rate 62 g/ha, scale of 0 to 10 where 0 is no effect and 10 is complete control"}, "[3]": {"settings": "Preemergence, Rate 125 g/ha, 0 is no effect, 10 is complete control"}, "[4]": {"settings": "Preemergence, Rate 250 g/ha, scale 0 to 10, 0 is no effect, 10 is complete control"}, "[5]": {"settings": "Preemergence, Rate 500 g/ha, scale 0 to 10 (0 no effect, 10 complete control)"}, "[6]": {"settings": "Rate 62 g/ha, Postemergence, scale of 0 to 10 where 0 is no effect and 10 is complete control"}, "[7]": {"settings": "Rate 250 g/ha, Postemergence, scale 0 to 10, 0 is no effect, 10 is complete control"}, "[8]": {"settings": "Rate 500 g/ha, Postemergence, scale 0 to 10"}}, "data": [{"smiles": "CC(C)N(C(=O)n1oc(=O)n([C@@H](C)c2ccccc2)c1=O)c1ccccc1", "note": "[Compound 173]", "values": [{"measurement": "B. signalgrass plant response rating", "setting": "surinam grass; [1]", "value": 0}, {"measurement": "B. signalgrass plant response rating", "setting": "surinam grass; [2]", "value": 0}, {"measurement": "B. signalgrass plant response rating (0 to 10 scale)", "setting": "surinam grass; [3]", "value": 0}, {"measurement": "B. signalgrass plant response rating", "setting": "surinam grass; [4]", "value": 3}, {"measurement": "B. signalgrass plant response rating", "setting": "surinam grass; [5]", "value": 4}, {"measurement": "B. signalgrass plant response rating", "setting": "surinam grass; [6]", "value": 0}, {"measurement": "Plant response rating, B. signalgrass", "setting": "surinam grass; [7]", "value": 0}, {"measurement": "B. signalgrass plant response rating", "setting": "surinam grass; Rate 500 g/ha, Postemergence, scale 0 to 10, 0 no effect, 10 complete control", "value": 0}, {"measurement": "Soybean plant response rating", "setting": "soybean; [1]", "value": 2}, {"measurement": "Soybean plant response rating", "setting": "soybean; [2]", "value": 0}, {"measurement": "Soybean plant response rating (0 to 10 scale)", "setting": "soybean; [3]", "value": 0}, {"measurement": "Soybean plant response rating", "setting": "soybean; [4]", "value": 0}, {"measurement": "Soybean plant response rating", "setting": "soybean; [5]", "value": 3}, {"measurement": "Soybean plant response rating", "setting": "soybean; [6]", "value": 2}, {"measurement": "Plant response rating, Soybean", "setting": "soybean; [7]", "value": 2}, {"measurement": "Soybean plant response rating", "setting": "soybean; [8]", "value": 4}, {"measurement": "Bedstraw plant response rating", "setting": "bedstraw; [1]", "value": 0}, {"measurement": "Bedstraw plant response rating", "setting": "bedstraw; [2]", "value": 0}, {"measurement": "Bedstraw plant response rating (0 to 10 scale)", "setting": "bedstraw; [3]", "value": 0}, {"measurement": "Bedstraw plant response rating", "setting": "bedstraw; [4]", "value": 0}, {"measurement": "Bedstraw plant response rating", "setting": "bedstraw; [5]", "value": 0}, {"measurement": "Bedstraw plant response rating", "setting": "bedstraw; [6]", "value": 0}, {"measurement": "Plant response rating, Bedstraw", "setting": "bedstraw; [7]", "value": 4}, {"measurement": "Velvetleaf plant response rating", "setting": "velvetleaf; [2]", "value": 0}, {"measurement": "Velvetleaf plant response rating (0 to 10 scale)", "setting": "velvetleaf; [3]", "value": 0}, {"measurement": "Velvetleaf plant response rating", "setting": "velvetleaf; [4]", "value": 0}, {"measurement": "Velvetleaf plant response rating", "setting": "velvetleaf; [5]", "value": 0}, {"measurement": "Plant response rating, Velvetleaf", "setting": "velvetleaf; [7]", "value": 0}, {"measurement": "Velvetleaf plant response rating", "setting": "velvetleaf; [8]", "value": 0}, {"measurement": "Giant foxtail plant response rating", "setting": "giant foxtail; [1]", "value": 0}, {"measurement": "Giant foxtail plant response rating", "setting": "giant foxtail; [2]", "value": 6}, {"measurement": "Giant foxtail plant response rating (0 to 10 scale)", "setting": "giant foxtail; [3]", "value": 9}, {"measurement": "Giant foxtail plant response rating", "setting": "giant foxtail; [4]", "value": 9}, {"measurement": "Giant foxtail plant response rating", "setting": "giant foxtail; [5]", "value": 10}, {"measurement": "Giant foxtail plant response rating", "setting": "giant foxtail; [6]", "value": 0}, {"measurement": "Plant response rating, Giant foxtail", "setting": "giant foxtail; [7]", "value": 0}, {"measurement": "Giant foxtail plant response rating", "setting": "giant foxtail; [8]", "value": 0}, {"measurement": "Nutsedge plant response rating", "setting": "purple nutsedge; [1]", "value": 0}, {"measurement": "Nutsedge plant response rating", "setting": "purple nutsedge; [2]", "value": 0}, {"measurement": "Nutsedge plant response rating (0 to 10 scale)", "setting": "purple nutsedge; [3]", "value": 0}, {"measurement": "Nutsedge plant response rating", "setting": "purple nutsedge; [4]", "value": 0}, {"measurement": "Nutsedge plant response rating", "setting": "purple nutsedge; [5]", "value": 0}, {"measurement": "Nutsedge plant response rating", "setting": "purple nutsedge; [6]", "value": 0}, {"measurement": "Plant response rating, Nutsedge", "setting": "purple nutsedge; [7]", "value": 0}, {"measurement": "Nutsedge plant response rating", "setting": "purple nutsedge; [8]", "value": 0}, {"measurement": "Morningglory plant response rating", "setting": "morningglory; [1]", "value": 10}, {"measurement": "Morningglory plant response rating", "setting": "morningglory; [2]", "value": 0}, {"measurement": "Morningglory plant response rating (0 to 10 scale)", "setting": "morningglory; [3]", "value": 0}, {"measurement": "Morningglory plant response rating", "setting": "morningglory; [4]", "value": 0}, {"measurement": "Morningglory plant response rating", "setting": "morningglory; [5]", "value": 0}, {"measurement": "Morningglory plant response rating", "setting": "morningglory; [6]", "value": 7}, {"measurement": "Plant response rating, Morningglory", "setting": "morningglory; [7]", "value": 10}, {"measurement": "Morningglory plant response rating", "setting": "morningglory; [8]", "value": 10}, {"measurement": "Wheat plant response rating", "setting": "wheat; [2]", "value": 0}, {"measurement": "Wheat plant response rating (0 to 10 scale)", "setting": "wheat; [3]", "value": 0}, {"measurement": "Wheat plant response rating", "setting": "wheat; [4]", "value": 0}, {"measurement": "Wheat plant response rating", "setting": "wheat; [5]", "value": 0}, {"measurement": "Plant response rating, Wheat", "setting": "wheat; [7]", "value": 0}, {"measurement": "Wheat plant response rating", "setting": "wheat; [8]", "value": 0}, {"measurement": "Redroot pigweed plant response rating", "setting": "pigweed; [1]", "value": 0}, {"measurement": "Redroot pigweed plant response rating", "setting": "pigweed; [2]", "value": 0}, {"measurement": "Redroot pigweed plant response rating (0 to 10 scale)", "setting": "pigweed; [3]", "value": 0}, {"measurement": "Redroot pigweed plant response rating", "setting": "pigweed; [4]", "value": 0}, {"measurement": "Redroot pigweed plant response rating", "setting": "pigweed; [5]", "value": 5}, {"measurement": "Redroot pigweed plant response rating", "setting": "pigweed; [6]", "value": 0}, {"measurement": "Plant response rating, Redroot pigweed", "setting": "pigweed; [7]", "value": 0}, {"measurement": "Redroot pigweed plant response rating", "setting": "pigweed; [8]", "value": 0}, {"measurement": "Wild oats plant response rating", "setting": "wild oat; [2]", "value": 0}, {"measurement": "Wild oats plant response rating (0 to 10 scale)", "setting": "wild oat; [3]", "value": 0}, {"measurement": "Wild oats plant response rating", "setting": "wild oat; [4]", "value": 2}, {"measurement": "Wild oats plant response rating", "setting": "wild oat; [5]", "value": 3}, {"measurement": "Plant response rating, Wild oats", "setting": "wild oat; [7]", "value": 0}, {"measurement": "Wild oats plant response rating", "setting": "wild oat; [8]", "value": 0}, {"measurement": "Blackgrass plant response rating", "setting": "blackgrass; [1]", "value": 0}, {"measurement": "Blackgrass plant response rating", "setting": "blackgrass; [2]", "value": 0}, {"measurement": "Blackgrass plant response rating (0 to 10 scale)", "setting": "blackgrass; [3]", "value": 0}, {"measurement": "Blackgrass plant response rating", "setting": "blackgrass; [4]", "value": 0}, {"measurement": "Blackgrass plant response rating", "setting": "blackgrass; [5]", "value": 6}, {"measurement": "Blackgrass plant response rating", "setting": "blackgrass; [6]", "value": 0}, {"measurement": "Plant response rating, Blackgrass", "setting": "blackgrass; [7]", "value": 2}, {"measurement": "Blackgrass plant response rating", "setting": "blackgrass; [8]", "value": 2}, {"measurement": "Cocklebur plant response rating", "setting": "cocklebur; [1]", "value": 0}, {"measurement": "Cocklebur plant response rating", "setting": "cocklebur; [2]", "value": 0}, {"measurement": "Cocklebur plant response rating (0 to 10 scale)", "setting": "cocklebur; [3]", "value": 0}, {"measurement": "Cocklebur plant response rating", "setting": "cocklebur; [4]", "value": 0}, {"measurement": "Cocklebur plant response rating", "setting": "cocklebur; [5]", "value": 0}, {"measurement": "Cocklebur plant response rating", "setting": "cocklebur; [6]", "value": 0}, {"measurement": "Plant response rating, Cocklebur", "setting": "cocklebur; [7]", "value": 1}, {"measurement": "Cocklebur plant response rating", "setting": "cocklebur; [8]", "value": 2}, {"measurement": "Crabgrass plant response rating", "setting": "crabgrass; [1]", "value": 4}, {"measurement": "Crabgrass plant response rating", "setting": "crabgrass; [2]", "value": 2}, {"measurement": "Crabgrass plant response rating (0 to 10 scale)", "setting": "crabgrass; [3]", "value": 6}, {"measurement": "Crabgrass plant response rating", "setting": "crabgrass; [4]", "value": 8}, {"measurement": "Crabgrass plant response rating", "setting": "crabgrass; [5]", "value": 9}, {"measurement": "Crabgrass plant response rating", "setting": "crabgrass; [6]", "value": 0}, {"measurement": "Plant response rating, Crabgrass", "setting": "crabgrass; [7]", "value": 5}, {"measurement": "Crabgrass plant response rating", "setting": "crabgrass; [8]", "value": 8}]}]}
